Where two headings read alike, the source gives them in different places.
Key:
Type in all cases: physicochemical
[1] = Antioxidant study: influence of antioxidant on Co-Q10 stability in krill oil and Vitamin D; conditions: for Amount of Co-Q10: in krill oil and Vitamin D with the antioxidant
Experimental: (§1) Several antioxidants were evaluated for their ability to stabilize Co-Q10 in krill oil and Vitamin D. The results are summarized in Table 2.

[2] = Influence of antioxidant dosing on Co-Q10 stability
Experimental: as §1

[3] = Stability of Co-Q10 and Co-QH in krill oil and Vitamin D mixtures, accelerated conditions; conditions: over the 12-week period; 40° C., 75% relative humidity
Experimental: Two formulations comprising Co-Q10 (Study I) and Co-QH (Study II) were evaluated for stability in krill oil and Vitamin D mixtures. The compositions were subjected to accelerated conditions (40° C., 75% relative humidity for up to 12 weeks), and the amounts of Co-Q10, Co-QH, and ubichromenol were evaluated at several time points.

[4] = Influence of chelating agent on Co-Q10 stability; conditions: with the chelating agent
[5] = antioxidant medium dose, 1 week
[6] = antioxidant medium dose, 2 weeks
[7] = antioxidant medium dose, Initial

O=C1O[C@H]([C@@H](O)CO)C(O)=C1O [Ascorbic Acid]
Amount of Co-Q10 ([1]; 1 week): 133 mg
Amount of Co-Q10 ([1]; 2 weeks): 129 mg
Amount of Co-Q10 ([1]; Initial): 139 mg
Amount of Co-Q10 ([2]; antioxidant high dose, 1 week): 100 mg
Amount of Co-Q10 ([2]; antioxidant high dose, 2 weeks): 100 mg
Amount of Co-Q10 ([2]; antioxidant high dose, Initial): 109 mg
Amount of Co-Q10 ([2]; antioxidant low dose, 1 week): 91 mg
Amount of Co-Q10 ([2]; antioxidant low dose, 2 weeks): 71 mg
Amount of Co-Q10 ([2]; antioxidant low dose, Initial): 137 mg
Amount of Co-Q10 [2, 5]: 136 mg
Amount of Co-Q10 [2, 6]: 138 mg
Amount of Co-Q10 [2, 7]: 145 mg

COC1=C(OC)C(=O)C(C/C=C(\C)CC/C=C(\C)CC/C=C(\C)CC/C=C(\C)CC/C=C(\C)CC/C=C(\C)CC/C=C(\C)CC/C=C(\C)CC/C=C(\C)CCC=C(C)C)=C(C)C1=O [Co-Q10, Coenzyme Q10]
Stability in krill oil and Vitamin D (in words) [3]: unstable

COc1c(O)c(C)c(C/C=C(\C)CC/C=C(\C)CC/C=C(\C)CC/C=C(\C)CC/C=C(\C)CC/C=C(\C)CC/C=C(\C)CC/C=C(\C)CC/C=C(\C)CCC=C(C)C)c(O)c1OC [Co-QH, ubiquinol]
Stability in krill oil and Vitamin D (in words) [3]: stable

O=C(O)CN(CCN(CC(=O)O)CC(=O)O)CC(=O)O [EDTA]
Amount of Co-Q10 ([4]; 1 week): 10 mg
Amount of Co-Q10 ([4]; 2 weeks): 0 mg
Amount of Co-Q10 ([4]; Initial): 125 mg

C=CCc1ccc(O)c(OC)c1 [Eugenol]
Ability to stabilize Co-Q10 in krill oil and Vitamin D (in words) [1]: degrades rapidly
Amount of Co-Q10 ([1]; 1 week): 48 mg
Amount of Co-Q10 ([1]; 2 weeks): 25 mg
Amount of Co-Q10 ([1]; Initial): 142 mg
Amount of Co-Q10 ([2]; antioxidant high dose, 1 week): 43 mg
Amount of Co-Q10 ([2]; antioxidant high dose, 2 weeks): 26 mg
Amount of Co-Q10 ([2]; antioxidant high dose, Initial): 146 mg
Amount of Co-Q10 ([2]; antioxidant low dose, 1 week): 16 mg
Amount of Co-Q10 ([2]; antioxidant low dose, 2 weeks): 14 mg
Amount of Co-Q10 ([2]; antioxidant low dose, Initial): 142 mg
Amount of Co-Q10 [2, 5]: 23 mg
Amount of Co-Q10 [2, 6]: 16 mg
Amount of Co-Q10 [2, 7]: 146 mg

CC(=O)OO [Peracetic acid (PAA), Peracetic acid]
Amount of Co-Q10 ([4]; 1 week): 10 mg
Amount of Co-Q10 ([4]; 2 weeks): 0 mg
Amount of Co-Q10 ([4]; Initial): 137 mg

NC(N)=S [Thiourea]
Ability to stabilize Co-Q10 in krill oil and Vitamin D (in words) ([1]; Table 2): degrades rapidly
